Tested on: HCV replicon, genotype-1a variant with glutamine 30 changed to glutamate in the NS5A protein
Assay: microbe, parasite or virus in culture
Type: cell-based, HCV genotype 1a
Details: HCV replicon genotype 1a Q30E (Q→E) variant; test compound titrated with an NS5A-targeting compound (BMS-790052 fixed at 200 nM); ranking of synergist activity
Procedure, shortened: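 Synergy was assessed by combining several fixed amounts of an NS5A-targeting compound with a titration of the second compound of interest.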

Row | SMILES | Fold-Synergistic 1a (Q30E) [fold]
1 | CC[C@H](NC(=O)CC(C)C)c1nc(-c2ccc(-c3ccc(-c4c[nH]c([C@H](CC)NC(=O)CC(C)C)n4)cc3)cc2)c[nH]1 [Compound N-42] | >100
2 | COC(=O)N[C@@H](C(=O)N[C@H](c1nc(-c2ccc(-c3ccc(-c4c[nH]c([C@@H](NC(=O)[C@H](NC(=O)OC)C(C)C)C5CCCC5)n4)cc3)cc2)c[nH]1)C1CCCC1)C(C)C [Compound N-43] | >10
3 | CC(C)(C)C(=O)N[C@H](c1nc(-c2ccc(-c3ccc(-c4c[nH]c([C@@H](NC(=O)C(C)(C)C)C5CCCC5)n4)cc3)cc2)c[nH]1)C1CCCC1 [Compound N-44] | >100
4 | CC(C)(C)[C@H](NC(=O)C12CC3CC(CC(C3)C1)C2)c1nc(-c2ccc(-c3ccc(-c4c[nH]c([C@@H](NC(=O)C56CC7CC(CC(C7)C5)C6)C(C)(C)C)n4)cc3)cc2)c[nH]1 [Compound N-62] | >100
5 | CC(C)[C@H](NC(=O)C1(C)CCCCC1)c1nc(-c2ccc3c(c2)Cc2cc(-c4c[nH]c([C@@H](NC(=O)C5(C)CCCCC5)C(C)C)n4)ccc2-3)c[nH]1 [Compound N-69] | >100
6 | CC(C)[C@H](NC(=O)C1CCC(F)(F)CC1)c1nc(-c2ccc3c(c2)Cc2cc(-c4c[nH]c([C@@H](NC(=O)C5CCC(F)(F)CC5)C(C)C)n4)ccc2-3)c[nH]1 [Compound N-70] | >100
7 | CC(C)[C@H](NC(=O)C1CC(F)(F)C1)c1nc(-c2ccc3c(c2)Cc2cc(-c4c[nH]c([C@@H](NC(=O)C5CC(F)(F)C5)C(C)C)n4)ccc2-3)c[nH]1 [Compound N-71] | >100
8 | CC(C)[C@H](NC(=O)C1(C)CCCC1)c1nc(-c2ccc3c(c2)Cc2cc(-c4c[nH]c([C@@H](NC(=O)C5(C)CCCC5)C(C)C)n4)ccc2-3)c[nH]1 [Compound N-72] | >100
9 | CC(C)[C@H](NC(=O)c1cc(Cl)ccc1F)c1nc(-c2ccc3c(c2)Cc2cc(-c4c[nH]c([C@@H](NC(=O)c5cc(Cl)ccc5F)C(C)C)n4)ccc2-3)c[nH]1 [Compound N-73] | >100
10 | CC(C)[C@H](NC(=O)C(C)(C)F)c1nc(-c2ccc3c(c2)CCc2cc(-c4c[nH]c([C@@H](NC(=O)C(C)(C)F)C(C)C)n4)ccc2-3)c[nH]1 [Compound N-75] | >100
11 | CC(C)[C@H](NC(=O)c1cc(Cl)ccc1F)c1nc(-c2ccc3c(c2)CCc2cc(-c4c[nH]c([C@@H](NC(=O)c5cc(Cl)ccc5F)C(C)C)n4)ccc2-3)c[nH]1 [Compound N-76] | >100
12 | Cc1cc(-c2ccc(-c3c[nH]c([C@@H](NC(=O)C4CC(F)(F)C4)C(C)C)n3)cc2)ccc1-c1c[nH]c([C@@H](NC(=O)C2CC(F)(F)C2)C(C)C)n1 [Compound N-78] | >100
13 | Cc1cc(-c2ccc(-c3c[nH]c([C@@H](NC(=O)C4(C)CCCCC4)C(C)C)n3)cc2)ccc1-c1c[nH]c([C@@H](NC(=O)C2(C)CCCCC2)C(C)C)n1 [Compound N-79] | >100
14 | Cc1cc(-c2ccc(-c3c[nH]c([C@@H](NC(=O)C4(C)CCCC4)C(C)C)n3)cc2)ccc1-c1c[nH]c([C@@H](NC(=O)C2(C)CCCC2)C(C)C)n1 [Compound N-80] | >100
15 | Cc1cc(-c2ccc(-c3c[nH]c([C@@H](NC(=O)c4c(F)cccc4Cl)C(C)C)n3)cc2)ccc1-c1c[nH]c([C@@H](NC(=O)c2c(F)cccc2Cl)C(C)C)n1 [Compound N-81] | >100
16 | Cc1cc(-c2ccc(-c3c[nH]c([C@@H](NC(=O)C4CCC(F)(F)CC4)C(C)C)n3)cc2)ccc1-c1c[nH]c([C@@H](NC(=O)C2CCC(F)(F)CC2)C(C)C)n1 [Compound N-82] | >100
17 | Cc1cc(-c2ccc(-c3c[nH]c([C@@H](NC(=O)C4(C)CCC(F)(F)CC4)C(C)C)n3)cc2)ccc1-c1c[nH]c([C@@H](NC(=O)C2(C)CCC(F)(F)CC2)C(C)C)n1 [Compound N-84] | >100
18 | COC(C)(C)C(=O)N[C@H](c1nc(-c2ccc(-c3ccc(-c4c[nH]c([C@@H](NC(=O)C(C)(C)OC)C(C)(C)C)n4)c(C)c3)cc2)c[nH]1)C(C)(C)C [Compound N-85] | >100
19 | Cc1cc(-c2ccc(-c3c[nH]c([C@@H](NC(=O)C(C)(C)C)C(C)(C)C)n3)cc2)ccc1-c1c[nH]c([C@@H](NC(=O)C(C)(C)C)C(C)(C)C)n1 [Compound N-86] | >100
20 | COC(C)(C)C(=O)N[C@H](c1nc(-c2ccc(-c3ccc(-c4c[nH]c([C@@H](NC(=O)C(C)(C)OC)C(C)C)n4)c(F)c3)cc2)c[nH]1)C(C)C [Compound N-87] | >100
21 | CC(C)[C@H](NC(=O)c1cc(Cl)ccc1F)c1nc(-c2ccc(-c3ccc(-c4c[nH]c([C@@H](NC(=O)c5cc(Cl)ccc5F)C(C)C)n4)c(F)c3)cc2)c[nH]1 [Compound N-88] | >100

Row | SMILES | Fold-Synergistic 1a (Q30E) [fold]
22 | CC(C)[C@H](NC(=O)C(C)(C)C)c1nc(-c2ccc(-c3ccc(-c4c[nH]c([C@@H](NC(=O)C(C)(C)C)C(C)C)n4)c(F)c3)cc2)c[nH]1 [Compound N-89] | >100
23 | CC(C)[C@H](NC(=O)C(C)(C)F)c1nc(-c2ccc(-c3ccc(-c4c[nH]c([C@@H](NC(=O)C(C)(C)F)C(C)C)n4)c(F)c3)cc2)c[nH]1 [Compound N-90] | >100
24 | CC(C)[C@H](NC(=O)C(C)(C)OCC(F)F)c1nc(-c2ccc(-c3ccc(-c4c[nH]c([C@@H](NC(=O)C(C)(C)OCC(F)F)C(C)C)n4)c(F)c3)cc2)c[nH]1 [Compound N-91] | >100
25 | CC(C)[C@H](NC(=O)c1ccccc1F)c1nc(-c2ccc(-c3ccc(-c4c[nH]c([C@@H](NC(=O)c5ccccc5F)C(C)C)n4)c(F)c3)cc2)c[nH]1 [Compound N-92] | >100
26 | CC(C)(C)C(=O)N[C@H](c1nc(-c2ccc(-c3ccc(-c4c[nH]c([C@@H](NC(=O)C(C)(C)C)C(C)(C)C)n4)c(F)c3)cc2)c[nH]1)C(C)(C)C [Compound N-93] | >100
27 | COC(C)(C)C(=O)N[C@H](c1nc(-c2ccc(-c3ccc(-c4c[nH]c([C@@H](NC(=O)C(C)(C)OC)C(C)(C)C)n4)c(F)c3)cc2)c[nH]1)C(C)(C)C [Compound N-94] | >100
28 | CC(C)(C)[C@H](NC(=O)c1ccccc1F)c1nc(-c2ccc(-c3ccc(-c4c[nH]c([C@@H](NC(=O)c5ccccc5F)C(C)(C)C)n4)c(F)c3)cc2)c[nH]1 [Compound N-95] | >100
29 | COC(C)(C)C(=O)N[C@H](c1nc(-c2ccc(-c3ccc(-c4c[nH]c([C@@H](NC(=O)C(C)(C)OC)C(C)C)n4)cc3F)cc2)c[nH]1)C(C)C [Compound N-96] | >100
30 | CC(C)[C@H](NC(=O)C(C)(C)F)c1nc(-c2ccc(-c3ccc(-c4c[nH]c([C@@H](NC(=O)C(C)(C)F)C(C)C)n4)cc3F)cc2)c[nH]1 [Compound N-97] | >100
31 | CC(C)[C@H](NC(=O)C(C)(C)OCC(F)F)c1nc(-c2ccc(-c3ccc(-c4c[nH]c([C@@H](NC(=O)C(C)(C)OCC(F)F)C(C)C)n4)cc3F)cc2)c[nH]1 [Compound N-98] | >100
32 | CC(C)[C@H](NC(=O)c1cc(Cl)ccc1F)c1nc(-c2ccc(-c3ccc(-c4c[nH]c([C@@H](NC(=O)c5cc(Cl)ccc5F)C(C)C)n4)cc3F)cc2)c[nH]1 [Compound N-99] | >100
33 | CC(C)[C@H](NC(=O)C(C)(C)C)c1nc(-c2ccc(-c3ccc(-c4c[nH]c([C@@H](NC(=O)C(C)(C)C)C(C)C)n4)cc3F)cc2)c[nH]1 [Compound N-100] | >100
34 | COC(C)(C)C(=O)N[C@H](c1nc(-c2ccc(-c3ccc(-c4c[nH]c([C@@H](NC(=O)C(C)(C)OC)C(C)C)n4)cn3)cc2)c[nH]1)C(C)C [Compound N-102] | >100
35 | CC(C)[C@H](NC(=O)C(C)(C)C)c1nc(-c2ccc(-c3ccc(-c4c[nH]c([C@@H](NC(=O)C(C)(C)C)C(C)C)n4)cn3)cc2)c[nH]1 [Compound N-103] | >100
36 | CC(C)(C)[C@H](NC(=O)C1CCC(F)(F)CC1)c1nc(-c2ccc(-c3cnc(-c4c[nH]c([C@@H](NC(=O)C5CCC(F)(F)CC5)C(C)(C)C)n4)cn3)cc2)c[nH]1 [Compound N-104] | >100
37 | CC(C)(C)C(=O)N[C@H](c1nc(-c2ccc(-c3cnc(-c4c[nH]c([C@@H](NC(=O)C(C)(C)C)C(C)(C)C)n4)cn3)cc2)c[nH]1)C(C)(C)C [Compound N-105] | >100
38 | O=C(NC(c1nc(-c2ccc(-c3ccc(-c4c[nH]c(C(NC(=O)C5CCC(F)(F)CC5)C5(C(F)(F)F)CC5)n4)cc3)cc2)c[nH]1)C1(C(F)(F)F)CC1)C1CCC(F)(F)CC1 (centres unmarked) [Compound N-109B] | >100
39 | CC(C)(C)[C@H](NC(=O)C1CCC(F)(F)C1)c1nc(-c2ccc(-c3ccc(-c4c[nH]c([C@@H](NC(=O)C5CCC(F)(F)C5)C(C)(C)C)n4)cc3)cc2)c[nH]1 (some centres unmarked) [Compound N-111A] | >100
40 | C=C1CCC(C(=O)N[C@H](c2nc(-c3ccc(-c4ccc(-c5c[nH]c([C@@H](NC(=O)C6CCC(=C)CC6)C(C)(C)C)n5)cc4)cc3)c[nH]2)C(C)(C)C)CC1 [Compound N-118] | >100
41 | CC(C)(C)[C@H](NC(=O)CC1CC(F)(F)C1)c1nc(-c2ccc(-c3ccc(-c4c[nH]c([C@@H](NC(=O)CC5CC(F)(F)C5)C(C)(C)C)n4)cc3)cc2)c[nH]1 [Compound N-120] | >100

— patent publication US9326973B2, “Hepatitis C virus inhibitors” (priority 2012, dated 2016)
